In general, Ki refers to a dissociation constant, usually derived from enzyme kinetics or from competition with a known ligand.

The target in assay [1] is T1, rhesus (Macacca Mulatta) H3 receptor (Macaca mulatta, UniProt Q865E1).
T1 construct: pcDNA5/FRT/TO (Invitrogen) containing the rhesus monkey (Macacca Mulatta) 445 amino acid H3 receptor
As to the kind of experiment: Rhesus H3 radioligand binding assay ([3H]-Methylhistamine displacement, WGA SPA beads). Also on record: species or system rhesus monkey (Macacca Mulatta). The conditions noted are these: read-out: Affinity: ki in Rhesus H3 membrane. As for the experimental part:
(§1) (Genbank #AY231164). Stably transfected cultures were amplified in tissue culture flasks by standard tissue culture methods and induced to express rhesus H3 by exposure to 500 ng/ml tetracycline (Cellgro) for 24 hours. After induction, cells were dissociated from flasks utilizing Cell Stripper (Cellgro). Cells were centrifuged (1K×g, 5 min) and pellet frozen in an ethanol-dry ice bath to disrupt cell membranes. Frozen cell pellet was re-suspended in 5 mM HEPES (pH 7.4, Invitrogen) at 10 ml/1000 cm2 of harvested cells. The cell suspension was drawn through an 18 gauge needle (2-3×) followed by a 23 gauge needle (2-3×) to further disrupt cell membranes. The cell suspension was centrifuged (40K×g, 30 min). Cell membrane pellet was re-suspended in 5 mM HEPES (pH 7.4, Invitrogen) at a final protein concentration of 10 mg/ml. Rhesus H3 membranes were stored under liquid nitrogen prior to use in [3H]-Methylhistamine and GTPγS radioligand binding assays.
Rhesus H3 radioligand binding assay was performed using rhesus H3 receptor membranes (prepared as described above), [3H]-Methylhistamine (Perkin Elmer) and WGA SPA beads (wheat germ agglutinin scintillation proximity assay) beads (Amersham). The assay was performed in 96-well Opti-Plates (Packard). Each reaction contained 50 μl rhesus H3 membranes (20-30 μg total protein), 50 μl WGA SPA beads (0.1 μg) and 50 μl of 83 Ci/mmol [^3H]-Methylhistamine (final concentration 2 nM) and 50 μl of tested compound. The compounds of this invention and/or vehicle were diluted with binding buffer from 10 mM DMSO stocks. Assay plates were sealed with TopSeal (Perkin Elmer) and mixed on shaker (25° C., 1 hour). Assay plates were read on TopCount scintillation counter (Packard). Results were analyzed by Hill transformation and Ki values were determined by Cheng-Prusoff equation.

Assay [2] has as its system rhesus H3. As to the kind of experiment: GTPγS radioligand binding assay, inhibition of rhesus H3 constitutive functional activity in cell membranes. Format: biochemical, rhesus monkey (Macacca Mulatta). The conditions noted are these: Table 1; relative to basal level. As for the experimental part: as §1, with “Rhesus H3 membranes were prepared from the Flp-In T-REx 293 Cell Line (Invitrogen) stably transfected with pcDNA5/FRT/TO (Invitrogen) containing the rhesus monkey (Macacca Mulatta) 445 amino acid H3 receptor. (Genbank” for “(Genbank”

Setting [3] is: Table 2, stereoisomer comparison, procedure of Example 148.
Where [4] appears, read: Table 1, [3H]-Methylhistamine 2 nM, Cheng-Prusoff.

Where a name gives a salt, the structure may show the parent alone. Read-outs that look alike come from different tables or passages of the source.

T1 sequence (Q865E1 1-445): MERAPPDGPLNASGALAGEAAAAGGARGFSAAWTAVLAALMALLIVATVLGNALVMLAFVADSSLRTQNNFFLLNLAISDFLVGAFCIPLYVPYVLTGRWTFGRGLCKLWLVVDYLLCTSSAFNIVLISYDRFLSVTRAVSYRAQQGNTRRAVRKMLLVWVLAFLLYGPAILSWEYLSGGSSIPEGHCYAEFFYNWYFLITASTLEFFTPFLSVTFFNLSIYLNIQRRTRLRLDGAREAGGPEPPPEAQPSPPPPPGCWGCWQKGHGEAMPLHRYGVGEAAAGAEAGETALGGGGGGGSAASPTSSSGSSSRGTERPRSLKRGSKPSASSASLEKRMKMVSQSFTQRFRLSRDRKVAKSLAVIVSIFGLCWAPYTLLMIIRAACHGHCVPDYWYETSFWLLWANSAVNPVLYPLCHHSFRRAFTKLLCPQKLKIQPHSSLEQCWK

Consider `Cc1cc(N2CC[C@@H](N3CCC[C@@H]3C)C2)ccc1NC(=O)c1cc(F)ccc1C` [Example 3, 5-Fluoro-2-methyl-N-[2-methyl-4-(2(2S)-methyl-[1,3′(3′R)]bipyrrolidinyl-1′-yl)-phenyl]-benzamide], for which the Ki in assay [1] (setting [3]) came to 7.3 nM.

Regarding `Cc1cc(N2CC[C@H](N3CCC[C@H]3C)C2)ccc1NC(=O)c1cc(F)ccc1C` [Example 5, 5-Fluoro-2-methyl-N-[2-methyl-4-(2(2R)-methyl-[1,3′(3′S)]bipyrrolidinyl-1′-yl)-phenyl]-benzamide], the inhibition constant (Ki) in assay [1] (setting [3]) is 121 nM.

As to `Cc1cc(N2CCC(N3CCCC3C)C2)ccc1NC(=O)c1ccc(F)cc1` (stereo not drawn) [Example 7, 4-Fluoro-N-[2-methyl-4-(2-methyl-[1,3′]bipyrrolidinyl-1′-yl)-phenyl]-benzamide], in assay [2], the “Inverse Agonism: % inhibition of Basal GTPγS binding in Rhesus H3” value (“Inverse Agonism: % inhibition” for short) was −31%. Also, the Ki in assay [1] (setting [4]) is 2.06 nM.

As to `Cc1cc(N2CC[C@@H](N3CCC[C@@H]3C)C2)ccc1NC(=O)c1cc(F)ccc1C` [Example 11, 5-Fluoro-2-methyl-N-[2-methyl-4-(2-(2S)-methyl-[1,3′(3′S)]bipyrrolidinyl-1′-yl)-phenyl]-benzamide], the Ki in assay [1] (setting [3]) worked out at 2.5 nM.

Regarding `Cc1cc(N2CC[C@@H](N3CCC[C@H]3C)C2)ccc1NC(=O)c1cc(F)ccc1C` [Example 12, 5-Fluoro-2-methyl-N-[2-methyl-4-(2-(R)-methyl-[1,3′(R)]bipyrrolidinyl-1′-yl)-phenyl]-benzamide hydrochloride], in assay [1] (setting [3]), the Ki was 147 nM.

Take `Cc1cc(N2CC[C@H](N3CCC[C@@H]3C)C2)ccc1NC(=O)c1ccc2[nH]ccc2c1` [Example 52, 1H-Indole-5-carboxylic acid [2-methyl-4-(2(S)-methyl-[1,3′(5)]-bipyrrolidinyl-1′-yl)-phenyl]-amide trifluoroacetate]: in assay [2], the “Inverse Agonism: % inhibition” value is recorded as −17%. In addition, the inhibition constant Ki in assay [1] (setting [4]) came out at 0.77 nM.

On to `Cc1cc(N2CC[C@H](N3CCC[C@@H]3C)C2)ccc1NC(=O)c1ccc2ccoc2c1` [Example 73, Benzofuran-6-carboxylic acid [2-methyl-4-(2(S)-methyl-[1,3′(S)]bipyrrolidinyl-1′-yl)-phenyl]-amide trifluoroacetate], for which the “Inverse Agonism: % inhibition” value in assay [2] is recorded as −15%. Moreover, the Ki in assay [1] (setting [4]) came to 0.78 nM.

As for `Cc1cccc(C(=O)Nc2ccc(N3CC[C@H](N4CCC[C@@H]4C)C3)cc2C)n1` [Example 86, 6-Methyl-pyridine-2-carboxylic acid [2-methyl-4-(2(S)-methyl-[1,3′(S)]bipyrrolidinyl-1′-yl)-phenyl]-amide trifluoroacetate], the “Inverse Agonism: % inhibition” value in assay [2] was −18%. Besides, the Ki in assay [1] (setting [4]) was 1.42 nM.

Source of the values: US8618159B2, “Substituted N-phenyl-bipyrrolidine carboxamides and therapeutic use thereof” (Sanofi, priority 2007, dated 2013).
